From article PMC3679788, “Factors affecting antiretroviral pharmacokinetics in HIV-infected women with virologic suppression on combination antiretroviral therapy: a cross-sectional study” (BMC Infectious Diseases, 2013)
Read-outs that look alike come from different tables or passages of the source.

Columns and labels:
[1] = Plasma Cmin and Cmax of PI/NNRTI in HIV-positive women on cART (LC-MS/MS); type: in vivo, human; conditions: for Cmin Intra-patient CV median (IQR) / Cmax median ratio to historical population mean (IQR) / Cmax n (%) >1.5 Historical pop mean (percent of participants) / Cmin median ratio to historical population mean (IQR) / Cmin n (%) >1.5 historical pop Mean (percent of participants) / Cmax Inter-patient CV / Cmin Inter-patient CV / Cmin Study participants median (IQR) / Cmin Mean (SD) / Cmax at 3 h / Cmax at 2 h / Cmax at 5 h / Cmax: HIV-positive women; for Cmin Intra-patient CV median (IQR): 3 weekly visits; for Cmax Inter-patient CV: from individual median Cmax; for Cmin Inter-patient CV: from individual median Cmin; for Cmin Study participants median (IQR) / Cmin Mean (SD) / Cmax at 3 h / Cmax at 2 h / Cmax at 5 h / Cmax: plasma; for Cmin Study participants median (IQR) / Cmin Mean (SD): pre-dose, in ng/mL; for Cmax at 3 h / Cmax at 2 h / Cmax at 5 h / Cmax: female, human, oral; for Cmax at 3 h: 3 hours post-dose; for Cmax at 2 h: 2 hours post-dose; for intra-patient variability for Cmax, in words / intra-patient variability for Cmin, in words / inter-patient variability (CV) for both Cmin and Cmax, in words: compared among the regimens; for intra-patient variability for Cmax, in words / inter-patient variability (CV) for both Cmin and Cmax, in words: nevirapine and lopinavir/ritonavir as BID; for intra-patient variability for Cmin, in words: nevirapine as BID; for Cmax at 5 h: 600 mg, 5 hours post-dose
Description: Patients were asked to fast from midnight of the previous night. One hour before their scheduled morning dose the pre-dose blood collection was drawn (Cmin t) (alternative arrangements were made if the patient took their drugs in the evening). […] Concentrations of the PIs and the NNRTIs in plasma were measured simultaneously by sensitive and selective, validated high-performance liquid chromatography coupled to tandem mass-spectroscopy (LC-MS/MS). All samples were analyzed at the pharmacokinetic laboratory at the Ottawa Hospital Research Institute in Ottawa, Canada. The PK endpoints for each patient were determined by taking the median of the three weekly values for the Cmin and Cmax. The rationale for measuring drug levels at three separate time points was that there is potentially intra-individual variability in drug levels, especially for PIs. Using the median value for the endpoints eliminated outliers. The three drug level measurements allowed for the calculation of intra-patient variability. […] Next, for each subject the ratio of their median Cmin and Cmax for their main PI or NNRTI to this published drug level was calculated and used as the primary outcome as previously reported by Burger et al. […] Inter-patient variability of Cmin and Cmax for each antiretroviral drug was assessed by calculating the coefficient of variation (CV) using each individual’s median Cmin and Cmax. […] These values are summarized using median and IQR of the individual CVs. […] Finally, linear regression models were fit to assess correlates of the square root-transformed Cmin and Cmax ratios. […] The regression models included indicator variables to account for the different antiretroviral medications and each potential correlate was included separately in an adjusted model. Statistical analyses were performed using SAS Version 9.2 (SAS Institute, Cary, North Carolina, USA).

[2] = cited from earlier work
[3] = historical HIV population, atazanavir 400 mg QD; cited from earlier work
[4] = compared among the antiretrovirals
[5] = 400 mg, 400 mg QD, read-out: Cmax Study participants median (IQR)
[6] = 400 mg, 400 QD, read-out: Cmax Mean (SD)

COC(=O)N[C@H](C(=O)N[C@@H](Cc1ccccc1)[C@@H](O)CN(Cc1ccc(-c2ccccn2)cc1)NC(=O)[C@@H](NC(=O)OC)C(C)(C)C)C(C)(C)C [Atazanavir boosted with ritonavir, atazanavir]
Cmin Intra-patient CV median (IQR) ([1]; 300 QD boosted with ritonavir): 26.3 (15.6-56.1) | Cmax median ratio to historical population mean (IQR) ([1]; 300 QD boosted with ritonavir): 0.66 (0.51-0.85) | Cmax n (%) >1.5 Historical pop mean (percent of participants) ([1]; 300 QD boosted with ritonavir): 0 (0.0%) | Cmin median ratio to historical population mean (IQR) ([1]; 300 QD boosted with ritonavir): 0.97 (0.77-1.42) | Cmin n (%) >1.5 historical pop Mean (percent of participants) ([1]; 300 QD boosted with ritonavir): 4 (22.2%) | Cmax Inter-patient CV ([1]; 300 QD boosted with ritonavir): 41.4% | Cmin Inter-patient CV ([1]; 300 QD boosted with ritonavir): 65.6% | Cmin Study participants median (IQR) ([1]; 300 mg QD with ritonavir 100 mg): 835 (663–1220) | Cmin Mean (SD) ([1]; 300 QD boosted with ritonavir): 1065.6 (699.2) | Cmax at 3 h ([1]; 300 mg QD with ritonavir 100 mg, read-out: Cmax Study participants median (IQR)): 3430 ng/mL | Cmax at 3 h ([1]; 300 QD boosted with ritonavir, read-out: Cmax Mean (SD)): 3530 ng/mL

COC(=O)N[C@H](C(=O)N[C@@H](Cc1ccccc1)[C@@H](O)CN(Cc1ccc(-c2ccccn2)cc1)NC(=O)[C@@H](NC(=O)OC)C(C)(C)C)C(C)(C)C [Atazanavir, atazanavir]
Cmin Intra-patient CV median (IQR) ([1]; 400 QD): 57.4 (40.5-86.7) | Cmax median ratio to historical population mean (IQR) ([1]; 400 QD): 0.59 (0.31-0.94) | Cmax n (%) >1.5 Historical pop mean (percent of participants) ([1]; 400 QD): 0 (0.0%) | Cmin median ratio to historical population mean (IQR) ([1]; 400 QD): 0.78 (0.35-1.37) | Cmin n (%) >1.5 historical pop Mean (percent of participants) ([1]; 400 QD): 2 (22.2%) | Cmax median ratio to historical population mean (IQR) ([1]; all doses of the drug pooled): 0.65 (0.44-0.87) | Cmax n (%) >1.5 Historical pop mean (percent of participants) ([1]; all doses of the drug pooled): 0 (0.0%) | Cmin median ratio to historical population mean (IQR) ([1]; all doses of the drug pooled): 0.95 (0.53-1.42) | Cmin n (%) >1.5 historical pop Mean (percent of participants) ([1]; all doses of the drug pooled): 6 (22.2%) | Cmax Inter-patient CV ([1]; 400 QD): 57.3% | Cmin Inter-patient CV ([1]; 400 QD): 78.0% | Cmin Study participants median (IQR) ([1]; 400 mg QD): 214 (95–373) | Cmin Mean (SD) ([1]; 400 QD): 250.4 (195.4) | inter-patient variability, in words [1, 4]: greatest observed inter-patient variability | ratios of both Cmin and Cmax versus historical reference values, in words [1, 4]: lowest ratios | Cmax at 2 h [1, 5]: 1870 ng/mL | Cmax at 2 h [1, 6]: 2000 ng/mL | Inter- and intra-patient variability, in words ([1]; particularly when not boosted with ritonavir): high | increase in AUC in women ([2]; in vivo): approximately 20% | Cmax Population mean [3]: 3150 ng/mL

O=C1Nc2ccc(Cl)cc2[C@@](C#CC2CC2)(C(F)(F)F)O1 [Efavirenz, efavirenz]
Cmin Intra-patient CV median (IQR) ([1]; 600 QD): 17.7 (10.5-25.1) | Cmax median ratio to historical population mean (IQR) ([1]; 600 QD): 0.79 (0.57-1.27) | Cmax n (%) >1.5 Historical pop mean (percent of participants) ([1]; 600 QD): 4 (25.0%) | Cmin median ratio to historical population mean (IQR) ([1]; 600 QD): 0.95 (0.67-1.95) | Cmin n (%) >1.5 historical pop Mean (percent of participants) ([1]; 600 QD): 6 (37.5%) | Cmax Inter-patient CV ([1]; 600 QD): 52.4% | Cmin Inter-patient CV ([1]; 600 QD): 55.0% | Cmin Study participants median (IQR) ([1]; 600 mg QD): 1680 (1180–3450) | Cmin Mean (SD) ([1]; 600 QD): 2196.9 (1209.2) | intra-patient variability for Cmax, in words [1]: lowest intra-patient variability | intra-patient variability for Cmin, in words [1]: lowest intra-patient variability | Cmax at 5 h ([1]; 600 mg QD, read-out: Cmax Study participants median (IQR)): 3240 ng/mL | Cmax at 5 h ([1]; 600 QD, read-out: Cmax Mean (SD)): 3930 ng/mL | serum levels in women ([2]; in vivo): higher

Cc1cccc(C)c1OCC(=O)N[C@@H](Cc1ccccc1)[C@@H](O)C[C@H](Cc1ccccc1)NC(=O)[C@H](C(C)C)N1CCCNC1=O [Lopinavir boosted with ritonavir, lopinavir]
Cmin Intra-patient CV median (IQR) ([1]; 400 BID boosted with ritonavir): 23.8 (12.8-75.8) | Cmin Intra-patient CV median (IQR) ([1]; 800 QD boosted with ritonavir): 63.4 (35.2- 115) | Cmax n (%) >1.5 Historical pop mean (percent of participants) ([1]; 400 BID boosted with ritonavir): 0 (0.0%) | Cmin n (%) >1.5 historical pop Mean (percent of participants) ([1]; 400 BID boosted with ritonavir): 3 (18.8%) | Cmax n (%) >1.5 Historical pop mean (percent of participants) ([1]; 800 QD boosted with ritonavir): 0 (0.0%) | Cmin n (%) >1.5 historical pop Mean (percent of participants) ([1]; 800 QD boosted with ritonavir): 3 (75.0%) | Cmax n (%) >1.5 Historical pop mean (percent of participants) ([1]; all doses of the drug pooled): 0 (0.0%) | Cmin n (%) >1.5 historical pop Mean (percent of participants) ([1]; all doses of the drug pooled): 6 (30.0%) | Cmax Inter-patient CV ([1]; 400 BID boosted with ritonavir): 32.8% | Cmax Inter-patient CV ([1]; 800 QD boosted with ritonavir): 39.8% | Cmin Inter-patient CV ([1]; 400 BID boosted with ritonavir): 44.7% | Cmin Inter-patient CV ([1]; 800 QD boosted with ritonavir): 72.5% | Cmin Study participants median (IQR) ([1]; 400 mg BID with ritonavir 100 mg): 6660 (4360–7710) | Cmin Study participants median (IQR) ([1]; 800 mg QD with ritonavir 200 mg): 6445 (2452–8260) | Cmin Mean (SD) ([1]; 400 BID boosted with ritonavir): 6370.0 (2846.4) | Cmin Mean (SD) ([1]; 800 QD boosted with ritonavir): 5356.2 (3882.3) | inter-patient variability (CV) for both Cmin and Cmax, in words [1]: least inter-patient variability | intra-patient variability for Cmax, in words [1]: lowest intra-patient variability | Cmax ([1]; 800 mg QD with ritonavir 200 mg, read-out: Cmax Study participants median (IQR)): 11700 ng/mL | Cmax ([1]; 800 QD boosted with ritonavir, read-out: Cmax Mean (SD)): 11200 ng/mL | increase in AUC in women ([2]; in vivo): approximately 20%

Cc1ccnc2c1NC(=O)c1cccnc1N2C1CC1 [Nevirapine, nevirapine]
Cmin Intra-patient CV median (IQR) ([1]; 200 BID): 13.9 (10.2-27.8) | Cmin Intra-patient CV median (IQR) ([1]; 400 QD): 21.3 (12.1-44.9) | Cmax median ratio to historical population mean (IQR) ([1]; 200 BID): 0.96 (0.84-1.37) | Cmax n (%) >1.5 Historical pop mean (percent of participants) ([1]; 200 BID): 2 (18.2%) | Cmin median ratio to historical population mean (IQR) ([1]; 200 BID): 1.41 (0.91-1.93) | Cmin n (%) >1.5 historical pop Mean (percent of participants) ([1]; 200 BID): 5 (45.5%) | Cmax median ratio to historical population mean (IQR) ([1]; 400 QD): 0.96 (0.72-1.40) | Cmax n (%) >1.5 Historical pop mean (percent of participants) ([1]; 400 QD): 1 (12.5%) | Cmin median ratio to historical population mean (IQR) ([1]; 400 QD): 2.08 (0.90-2.53) | Cmin n (%) >1.5 historical pop Mean (percent of participants) ([1]; 400 QD): 5 (62.5%) | Cmax median ratio to historical population mean (IQR) ([1]; all doses of the drug pooled): 0.96 (0.81-1.37) | Cmax n (%) >1.5 Historical pop mean (percent of participants) ([1]; all doses of the drug pooled): 3 (15.8%) | Cmin median ratio to historical population mean (IQR) ([1]; all doses of the drug pooled): 1.62 (0.91-2.32) | Cmin n (%) >1.5 historical pop Mean (percent of participants) ([1]; all doses of the drug pooled): 10 (52.6%) | Cmax Inter-patient CV ([1]; 200 BID): 37.8% | Cmax Inter-patient CV ([1]; 400 QD): 39.9% | Cmin Inter-patient CV ([1]; 200 BID): 45.4% | Cmin Inter-patient CV ([1]; 400 QD): 57.0% | Cmin Study participants median (IQR) ([1]; 200 mg BID): 5270 (3380–7190) | Cmin Study participants median (IQR) ([1]; 400 mg QD): 5995 (2590–7275) | Cmin Mean (SD) ([1]; 200 BID): 5693.6 (2586.8) | Cmin Mean (SD) ([1]; 400 QD): 5027.9 (2867.2) | Cmin ratio to published population mean, in words [1, 4]: highest ratios | inter-patient variability (CV) for both Cmin and Cmax, in words [1]: least inter-patient variability | intra-patient variability for Cmax, in words [1]: lowest intra-patient variability | intra-patient variability for Cmin, in words [1]: lowest intra-patient variability | Cmax at 2 h ([1]; 200 mg, 200 mg BID, read-out: Cmax Study participants median (IQR)): 5510 ng/mL | Cmax at 2 h ([1]; 200 mg, 200 BID, read-out: Cmax Mean (SD)): 6490 ng/mL | Cmax at 2 h [1, 5]: 6400 ng/mL | Cmax at 2 h [1, 6]: 6920 ng/mL | exposure in pregnant women ([2]; in vivo): lower | serum levels in women ([2]; in vivo): higher

CC(C)CN(C[C@@H](O)[C@H](Cc1ccccc1)NC(=O)O[C@H]1CO[C@H]2OCC[C@H]21)S(=O)(=O)c1ccc(N)cc1 [darunavir]
increase in AUC in women ([2]; women versus men, product monographs): approximately 20%

CC(C)(C)NC(=O)[C@@H]1C[C@@H]2CCCC[C@@H]2CN1C[C@@H](O)[C@H](Cc1ccccc1)NC(=O)[C@H](CC(N)=O)NC(=O)c1ccc2ccccc2n1 [saquinavir]
serum levels in women versus men ([2]; in vivo): significantly higher in women than in men
